According to ChEMBL document CHEMBL2057163, “Pyridofuran substituted pyrimidine derivatives as HCV replication (replicase) inhibitors” (Bioorg Med Chem Lett, 2012):

Key:
[1] = system: Liver; experiment: Drug uptake in rat liver assessed per gram of tissue at 10 mg/kg, po measured at 6 hrs; type: ADME, organism-based; set-up: dose 10 mg/kg, route oral; details: in vivo
[2] = AUC (0 to 6 hrs) in rat at 10 mg/kg, po; type: ADME, organism-based; set-up: time < 6 hr, dose 10 mg/kg, route oral; details: plasma
[3] = system: Hepatitis C virus; experiment: Antiviral activity against Hepatitis C virus 1b con1 infected in human hepatoma cells assessed as decrease in replicon RNA level after 3 days by RT-PCR analysis; type: functional, organism-based, Hepacivirus hominis; details: Con1, 72 h
[4] = Cytotoxicity against human hepatoma cells assessed as decrease in GAPDH RNA level after 3 days by RT-PCR analysis; type: cell-based
[5] = Cytotoxicity against human hepatoma cells after 3 days by MTS assay; type: cell-based

Row | Compound | liver concentration [1] | AUC(0-t) at 6 h [2] | EC50 [3] | CC50 at 72 h [4] | CC50 at 72 h [5]
1 | CCOc1cc2cc(-c3c(C)nc(NCCOC)nc3N[C@@H]3C[C@H](CO)[C@@H](O)[C@H]3O)oc2c(C)n1.Cl | 285 ng/g | 1.1 µM·h |  |  | 
2 | CCc1cc2cc(-c3c(Cl)nc(N)nc3N[C@@H]3C[C@H](CO)[C@@H](O)[C@H]3O)oc2c(C)n1.Cl |  | 0.01 µM·h |  |  | 
3 | CNc1nc(Cl)c(-c2cc3cc(OC)nc(C)c3o2)c(N[C@@H]2C[C@H](CO)[C@@H](O)[C@H]2O)n1.Cl | 274 ng/g | 6.5 µM·h |  |  | 
4 | COc1cc(CNc2nc(C)c(-c3cc4cc(OC)nc(C)c4o3)c(N[C@@H]3C[C@H](CO)[C@@H](O)[C@H]3O)n2)cc(OC)c1 |  |  | 0.01 µM | > 25 µM | 25 µM
5 | CCc1cc2cc(-c3c(C)nc(NCC(C)C)nc3N[C@@H]3C[C@H](CO)[C@@H](O)[C@H]3O)oc2cn1 |  |  | 0.08 µM | 7 µM | 12 µM
6 | CCOc1cc2cc(-c3c(C)nc(NCC(F)(F)F)nc3N[C@@H]3C[C@H](CO)[C@@H](O)[C@H]3O)oc2c(C)n1.Cl | 3020 ng/g | 8.9 µM·h |  |  | 
7 | CCc1cc2cc(-c3c(C)nc(NC)nc3N[C@@H]3C[C@H](CO)[C@@H](O)[C@H]3O)oc2cn1.Cl | 936 ng/g | 0.9 µM·h |  |  | 
8 | CCOc1cc2cc(-c3c(C)nc(NCc4cc(OC)cc(OC)c4)nc3N[C@@H]3C[C@H](CO)[C@@H](O)[C@H]3O)oc2c(C)n1 |  |  | 0.002 µM | > 25 µM | > 25 µM
9 | CCc1nccc2cc(-c3c(Cl)nc(N)nc3N[C@@H]3C[C@H](CO)[C@@H](O)[C@H]3O)oc12.Cl |  | 0.05 µM·h |  |  | 
10 | CCOc1cc2cc(-c3c(C)nc(Nc4ccccc4)nc3N[C@@H]3C[C@H](CO)[C@@H](O)[C@H]3O)oc2c(C)n1.Cl | 8980 ng/g | 18.5 µM·h |  |  | 
11 | CCc1cc2cc(-c3c(Cl)nc(N)nc3N[C@@H]3C[C@H](CO)[C@@H](O)[C@H]3O)oc2c(CC)n1.Cl |  | 0.17 µM·h |  |  | 
12 | Nc1nc(Cl)c(-c2cc3ncccc3o2)c(N[C@@H]2C[C@H](CO)[C@@H](O)[C@H]2O)n1 |  |  | > 25 µM |  | 21 µM
13 | CCc1cc2cc(-c3c(C)nc(NCc4cc(OC)cc(OC)c4)nc3N[C@@H]3C[C@H](CO)[C@@H](O)[C@H]3O)oc2cn1 |  |  | 0.003 µM | > 25 µM | 20 µM
14 | CCOc1cc2cc(-c3c(C)nc(NCC4CC4)nc3N[C@@H]3C[C@H](CO)[C@@H](O)[C@H]3O)oc2c(C)n1 |  |  | 0.02 µM | 25 µM | 25 µM
15 | CCc1cc2cc(-c3c(C)nc(NC)nc3N[C@@H]3C[C@H](CO)[C@@H](O)[C@H]3O)oc2cn1 |  |  | 0.03 µM | > 25 µM | > 25 µM
16 | CCOc1cc2cc(-c3c(C)nc(NC)nc3N[C@@H]3C[C@H](CO)[C@@H](O)[C@H]3O)oc2c(C)n1 |  |  | 0.05 µM | > 25 µM | 
17 | CCc1cc2cc(-c3c(Cl)nc(N)nc3N[C@@H]3C[C@H](CO)[C@@H](O)[C@H]3O)oc2c(C)n1 |  |  | 0.01 µM | 13 µM | 16 µM
18 | COc1cc2cc(-c3c(Cl)nc(N)nc3N[C@@H]3C[C@H](CO)[C@@H](O)[C@H]3O)oc2c(C)n1 |  |  | 0.01 µM |  | 25 µM
19 | CCOc1cc2cc(-c3c(C)nc(NCC(F)(F)F)nc3N[C@@H]3C[C@H](CO)[C@@H](O)[C@H]3O)oc2c(C)n1 |  |  | 0.02 µM | > 25 µM | > 25 µM
20 | Nc1nc(Cl)c(-c2cc3cccnc3o2)c(N[C@@H]2C[C@H](CO)[C@@H](O)[C@H]2O)n1 |  |  | 0.4 µM |  | 19 µM
21 | CCOc1cc2cc(-c3c(C)nc(NCC(C)(C)C)nc3N[C@@H]3C[C@H](CO)[C@@H](O)[C@H]3O)oc2c(C)n1.Cl | 2330 ng/g | 6.8 µM·h |  |  | 
22 | CCc1cc2cc(-c3c(C)nc(NCc4cc(OC)cc(OC)c4)nc3N[C@@H]3C[C@H](CO)[C@@H](O)[C@H]3O)oc2cn1.Cl | 20 ng/g | 0.1 µM·h |  |  | 
23 | Cc1cncc2oc(-c3c(Cl)nc(N)nc3N[C@@H]3C[C@H](CO)[C@@H](O)[C@H]3O)cc12 |  |  | 1.4 µM | 25 µM | > 25 µM
24 | CNc1nc(C)c(-c2cc3cc(OC)nc(C)c3o2)c(N[C@@H]2C[C@H](CO)[C@@H](O)[C@H]2O)n1.Cl | 310 ng/g | 2.7 µM·h |  |  | 
25 | CCc1cc2cc(-c3c(Cl)nc(N)nc3N[C@@H]3C[C@H](CO)[C@@H](O)[C@H]3O)oc2c(CC)n1 |  |  | 0.02 µM | 25 µM | 16 µM
26 | COc1cc(CNc2nc(C)c(-c3cc4cc(OC)nc(C)c4o3)c(N[C@@H]3C[C@H](CO)[C@@H](O)[C@H]3O)n2)cc(OC)c1.Cl | 178 ng/g | 0.5 µM·h |  |  | 
27 | COc1cc2cc(-c3c(Cl)nc(N)nc3N[C@@H]3C[C@H](CO)[C@@H](O)[C@H]3O)oc2c(C)n1.Cl |  | 0.1 µM·h |  |  | 
